Holding throughout (experiment): NCI tumour cell line growth inhibition, 48 h
Assay [1] concerns A549.
Assay [2] has as its system BT-549.
Assay [3] deals with CCRF-CEM.
Assay [4] relates to EKVX.
The subject of assay [5] is HOP-62.
Assay [6] concerns Hs-578T.
The test system of assay [7] is LOX IMVI.
Assay [8] concerns M14.
Assay [9] deals with MCF7.
Assay [10] has as its system MDA-MB-231.
The subject of assay [11] is MDA-MB-435.
Assay [12] relates to NCI/ADR-RES.
Assay [13] concerns OVCAR-4.
Assay [14] relates to SF-268.
The test system of assay [15] is SF-295.
Assay [16] deals with SN12C.
Assay [17] concerns SNB-75.
Assay [18] concerns SR.
The subject of assay [19] is TK-10.
Assay [20] deals with UO-31.

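Grown in 96-well plates, cells were treated for 48 hours with each compound at five concentrations. Insufficient inhibition: endpoint recorded as highest concentration tested. Abbreviation: GI50, concentration required for 50% inhibition of growth.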 Activity calls are given as the source filed them. Cut-off read from the data, not from the text of the source: active = GI50 up to about 1.1 µM and inactive = higher. Starred links: 1 amine or outer side, 2 acyl side, 3 side chain; linkers in the order of their positions; H or OH if unused. Positions of bridges follow the written chain, without caps; N, C: chain ends. Non-standard residues stand in square brackets, D forms with d. Residues, ends and D or L forms follow the SMILES beside them. Chains are numbered I, II in the order given. Actinocin(1to9) = Cc1c2oc3c(C)ccc(C(=O)[*:2])c3nc-2c(C(=O)[*:1])c(N)c1=O; NMeV = CN[CH](C(=O)O)C(C)C; Sar = CNCC(=O)O

Take `CCC(C)C1NC(=O)C(NC(=O)c2c3nc4c(C(=O)NC5C(=O)NC(C(C)CC)C(=O)N6CCCC6C(=O)N(C)CC(=O)N(C)C(C(C)C)C(=O)OC5C)ccc(C)c4oc-3c(C)c(=O)c2N)C(C)OC(=O)C(C(C)C)N(C)C(=O)CN(C)C(=O)C2CCCN2C1=O` (stereo not given) (I: TIP[Sar][NMeV] / II: TIP[Sar][NMeV]; ester I:1-I:C, II:1-II:C; linker I:N-II:N via Actinocin(1to9); configuration not given here): the GI50 in [1] was 0.000753 µM (active); in [2] it was 0.0105 µM (active); in assay [3], < 0.0001 µM (active); in assay [4] it was 0.0145 µM (active); in [5] it was < 0.0001 µM (active); in assay [6], 0.0065 µM (active). Also, the GI50 was < 0.0001 µM (active) in assay [7]; < 0.00995 µM (active) in [8]; < 0.0001 µM (active) in assay [9]; 0.00561 µM (active) in assay [10]; 0.000539 µM (active) in assay [11]; 0.296 µM (active) in assay [12]. The GI50 in [13] is 0.00625 µM (active); in assay [14], 0.00322 µM (active); in assay [15] it was 0.000477 µM (active); in assay [16], 0.000282 µM (active); in assay [17], 0.00319 µM (active); in assay [18], < 0.0001 µM (active). In addition, the GI50 in [19] is 0.0147 µM (active); in [20], 0.0204 µM (active).

With `O=C(CCC(NC(=O)OCc1ccccc1)C(=O)OCc1ccccc1)Nc1ccc(OCc2ccccc2)cc1` (stereo not given), the GI50 is 19.3 µM (inactive) in assay [1]; > 10 µM (inactive) in [2]; 21.8 µM (inactive) in assay [3]; > 31.6 µM (inactive) in assay [4]; > 78.7 µM (inactive) in assay [5]; 18.3 µM (inactive) in assay [6]. For the same compound, the GI50 was > 31.6 µM (inactive) in assay [7]; > 75.7 µM (inactive) in assay [8]; 13 µM (inactive) in assay [9]; 15.3 µM (inactive) in assay [10]; 17 µM (inactive) in assay [11]; 17.5 µM (inactive) in assay [12]. Further, the GI50 is 25.2 µM (inactive) in assay [13]; 26.4 µM (inactive) in assay [14]; > 31.6 µM (inactive) in assay [15]; > 31.6 µM (inactive) in assay [16]; > 31.6 µM (inactive) in assay [17]; 27.3 µM (inactive) in assay [18]. The GI50 was > 31.6 µM (inactive) in assay [19] and > 10 µM (inactive) in [20].

As to `Cc1cc(C)nc(NS(=O)(=O)c2ccc(NC(=O)c3ccc4nc5ccccc5c(Nc5ccc(S(=O)(=O)N=C(N)N)cc5)c4c3)cc2)n1`, the GI50 in assay [1] is > 100 µM (inactive); in assay [2] it was > 100 µM (inactive); in [3], 68.5 µM (inactive); in [4], > 100 µM (inactive); in assay [5], > 100 µM (inactive); in assay [6], > 100 µM (inactive). Further, the GI50 in assay [7], in [8], in [9], in assay [10], in assay [11] and in [12] was > 100 µM (inactive) each time. Further, the GI50 in assay [13], in assay [14], in [15], in assay [16], in assay [17] and in assay [18] was > 100 µM (inactive) in each case. In addition, the GI50 in assay [19] and in [20] was > 100 µM (inactive) each time.

Take `O=C1CC(n2cccc2)c2c(Br)sc(Br)c21` (stereo not given): the GI50 in assay [1] is 21 µM (inactive); in assay [2] it was 18.6 µM (inactive); in assay [3] it was 6.35 µM (inactive); in assay [4], 16 µM (inactive); in assay [5], 22.1 µM (inactive); in assay [6], 25.1 µM (inactive). The GI50 in [7] is 6.73 µM (inactive); in assay [8], 14.9 µM (inactive); in assay [9], 12 µM (inactive); in [10] it was 15.7 µM (inactive); in [11], 14.4 µM (inactive); in assay [12] it was 26.1 µM (inactive). The GI50 in assay [13] is 16.7 µM (inactive); in assay [14] it was 14.8 µM (inactive); in [15], 23.3 µM (inactive); in assay [16] it was 17.3 µM (inactive); in [17], 18.7 µM (inactive); in [18], 3.89 µM (inactive). For the same compound, the GI50 in [19] is 19.2 µM (inactive); in assay [20] it was 2.56 µM (inactive).

With `N#Cc1c(-c2ccc(Cl)cc2)c(-c2ccc(Cl)cc2)nn(CCOC(=O)CCC(=O)O)c1=O`, the GI50 is 1.31 µM (inactive) in assay [1]; 11.9 µM (inactive) in assay [2]; 0.48 µM (active) in [3]; 2.69 µM (inactive) in assay [4]; 0.64 µM (active) in assay [5]; 1.38 µM (inactive) in assay [6]. Also, the GI50 in [7] is 0.667 µM (active); in assay [8], 0.399 µM (active); in [9], 0.165 µM (active); in assay [10], 2.65 µM (inactive); in [11] it was 0.0773 µM (active); in assay [12], 1.32 µM (inactive). Moreover, the GI50 in assay [13] was 1.45 µM (inactive); in assay [14] it was 0.809 µM (active); in assay [15] it was 0.522 µM (active); in assay [16], 0.851 µM (active); in [17] it was 0.193 µM (active); in assay [18], 0.291 µM (active). Further, the GI50 in assay [19] was 4.11 µM (inactive); in assay [20] it was 1.11 µM (active).

Source of the values: ChEMBL document CHEMBL1201862, “PubChem BioAssay data set” (2004).
